This note sets out measurements from US7671047B2, “Cationically substituted diphenylazetidinones, process for their preparation, medicaments comprising these compounds, and their use” (Sanofi-Aventis Deutschland GmbH, priority 2002, dated 2010).

For this assay, the system named is uptake of 14C-cholesterol by the liver (cholesterol absorption). As to the kind of experiment: Cholesterol absorption test: uptake of 14C-cholesterol by the liver after peroral test meal. Format: in vivo, NMRI mice. The note with it: dose at which uptake of 14C-cholesterol by the liver was halved (50%) vs control group; test substance given perorally immediately prior to test meal; mouse. The source says:
Effect of the Compounds of the Invention on Cholesterol Absorption and ^3H-taurocholic Acid Excretion Using Fecal Excrement of Mice, Rats or Hamsters
NMRI mice, Wistar rats, or Golden Syrian hamsters (in groups of n=4-6) were kept in metabolic cages, where they were fed with a standard diet (Altromin, Lage (Lippe)). The afternoon prior to the administration of the radioactive tracers (^14C-cholesterol), the feed was removed and the animals were adapted to grates.
Additionally, the animals were labeled s.c. with ^3H-TCA (taurocholic acid) (for example 1 μCi/mouse up to 5 μCi/rat) 24 hours prior to the peroral administration of the test meal (^14C-cholesterol in Intralipid® 20, Pharmacia-Upjohn).
Cholesterol absorption test: 0.25 ml/mouse Intralipid® 20 (Pharmacia-Upjohn) ((spiked with 0.25 μCi of ^14C-cholesterol in 0.1 mg of cholesterol) was administered perorally by gavage.
Test substances were prepared separately in 0.5% methylcellulose (Sigma)/5% Solutol (BASF, Ludwigshafen) or a suitable vehicle.
The administration volume of the test substance was 0.5 ml/mouse. The test substance was administered immediately prior to the test meal (Intralipid labeled with ^14C-cholesterol) (cholesterol absorption test).
The feces were collected over a period of 24 h: fecal elimination of ^14C-cholesterol and ^3H-taurocholic acid (TCA) was determined after 24 hours.
The livers were removed and homogenized, and aliquots were incinerated in an oximate (Model 307, Packard) to determine the amount of ^14C-cholesterol which had been taken up/absorbed.
The amount of ^14C-cholesterol taken up by the liver was based on the administered dose. The ED50 values were interpolated from a dose-effect curve as the dose at which the uptake of ^14C-cholesterol by the liver was halved (50%), based on a control group.

On to `O=C(CCCCC[N+]12CCN(CC1)CC2)NCc1ccc(C2C(CCC(O)c3ccc(F)cc3)C(=O)N2c2ccc(F)cc2)cc1.O=C([O-])C(F)(F)F` (centres unmarked) [VII], for which the “ED50 (liver)” value amounted to 0.1 mg/mouse. `O=C(CCCCCCCCCCC[N+]12CCN(CC1)CC2)NCc1ccc(N2C(=O)C(CCC(O)c3ccccc3)C2c2ccccc2)cc1.O=C([O-])C(F)(F)F` (centres unmarked) [X, 1-[11-{4-[3-(3-Hydroxy-3-phenylpropyl)-2-oxo-4-phenylazetidin-1-yl]benzylcarbamoyl}undecyl)-4-aza-1-azoniabicyclo[2.2.2]octane trifluoroacetate]: the “ED50 (liver)” value was less than 1.0 mg/mouse.

`N=C(N)c1ccc(C2C(CCC(O)c3ccc(F)cc3)C(=O)N2c2ccc(F)cc2)cc1` (centres unmarked) [II, 4-{1-(4-Fluorophenyl)-3-[3-(4-fluorophenyl)-3-hydroxypropyl]-4-oxoazetidin-2-yl}benzamidine]: the “ED50 (liver)” value was 0.1 mg/mouse. Consider `COc1ccc(C2C(CCC(O)c3ccc(F)cc3)C(=O)N2c2ccc(CNC(=O)CCCCCCCCCCC[N+]34CCN(CC3)CC4)cc2)cc1.O=C([O-])C(F)(F)F` (centres unmarked) [XI, 1-[11-{4-[3-[3-(4-Fluorophenyl)-3-hydroxypropyl]-2-(4-methoxyphenyl)-4-oxoazetidin-1-yl]benzylcarbamoyl}undecyl)-4-aza-1-azoniabicyclo[2.2.2]octane trifluoroacetate], for which the “ED50 (liver)” value was 0.3 mg/mouse. Then `O=C(CCCCCCCCCCC[N+]12CCN(CC1)CC2)NCc1ccc(C2C(CCC(O)c3ccc(F)cc3)C(=O)N2c2ccc(F)cc2)cc1.O=C([O-])C(F)(F)F` (centres unmarked) [IX, 1-[11-(4-{1-(4-Fluorophenyl)-3-[3-(4-fluorophenyl)-3-hydroxypropyl]-4-oxoazetidin-2-yl}benzylcarbamoyl)undecyl]-4-aza-1-azoniabicyclo[2.2.2]octane trifluoroacetate], with 0.1 mg/mouse.
